The results in this text go back to patent US20260191793A1, “HBV SPECIFIC EXOSOMES AND USES THEREOF” (priority 2022, published 2026).

For one data set, the system named is HBV in HepG2-NTCP cells. Kind of data set: Infection of HepG2-NTCP cells with supernatants of gRNA/Cas9-transfected HepDE19 cells (infectious HBV particles). The data set is classed as cell-based, Hepatitis B virus (HBV). Particulars: HepG2-NTCP infected with supernatants of transfected HepDE19 cells, vs supernatants of gRNAc-transfected cells, qPCR. Here is the method: To characterize the effects of synthetic gRNA5/Cas9 and gRNA9/Cas9 on HBV replication, the ability of HBV particles derived from HepDE19 cells that have been transfected with gRNA5, gRNA9, or gRNAc RNPs for 3 days to infect HepG2-NTCP cells was assessed. HepG2-NTCP cells were infected for 6 days with supernatants harvested from HepDE19 cells. Genomic DNA was isolated from HepG2-NTCP cells and used for qPCR quantification of HBV DNA.
HBV infectious particles were harvested from the supernatants of gRNA/Cas9-treated HepDE19 cells and used for the infection of HepG2-NTCP cells following a previously published method. Briefly, the supernatants of gRNA RNP-treated HepDE19 cells were harvested and concentrated using a PEG concentration kit (Cat #ab102538, Abcam, Waltham, MA). For HBV infection, 2.5×10^5 HepG2-NTCP cells were seeded in a 12-well plate and mixed with 10 μl concentrated HBV supernatants in 1 ml hepatocyte maintenance medium (HMM) (with 8% PEG8000 and 5% DMSO) at 37° C. for 16 h. The culture media were changed daily with fresh HMM. After 8 days, the cells were harvested and HBV DNA and cccDNA levels were determined as described below.
Total and protein-free HBV DNAs were extracted from whole cell lysate using the Hirt DNA method according to a previously published protocol. For HBV cccDNA analysis, the protein-free DNA was treated with 10 units of T5 exonuclease (NEB) at 37° C. for 30 min, followed by 95° C. for 5 min, and diluted 4-fold with nuclease-free water. Next, the cccDNA was cleaned with a DNA clean and concentrator kit (ZYMO Research, Irvine, CA) and used for PCR. HBV total DNA and cccDNA were analyzed by real-time PCR using a TaqMan PCR assay. The primers and probe used to amplify HBV total DNA were: HBV total DNA forward: 5′-[…]-3′ (SEQ ID NO: 58), reverse 5′-[…]-3′ (SEQ ID NO: 59), and internal probe: 5′-FAM-[…]-TAMRA-3′ (SEQ ID NO: 60). The primers and probe used to amplify HBV cccDNA (Genotype D, subtype ayw) were: forward: 5′-[…]-3′ (SEQ ID NO: 61), reverse 5′-[…]-3′ (SEQ ID NO: 62), and internal probe 5′-FAM-[…]-TAMRA-3′ (SEQ ID NO: 63). The PCR reactions were performed in 20 μl volumes and contained 2 μl DNA. The PCR conditions were: 95° C. for 10 min, followed by 45 cycles of 95° C. for 15 s and 64° C. for 30 s. The DNA levels were determined by the […] method and values were normalized to the control group.
Sodium taurocholate cotransporting polypeptide (NTCP) is a functional receptor for human HBV. The human hepatoma cell line HepG2 is not susceptible to HBV infection due to lack of NTCP; however, HepG2 cells transfected with NTCP expression plasmids (HepG2-NTCP) are susceptible to natural HBV infection. To further characterize the inhibitory effects of the synthetic gRNA/Cas9 RNPs on HBV replication, HepG2-NTCP cells were incubated with supernatants collected from gRNA/Cas9 RNP-transfected HepDE19 cell culture (after 4 days). Genomic DNA was isolated from HepG2-NTCP cells on day 8 after HBV infection and used for the assessment of HBV replication.
On the technique in general: Real-time PCR tracks product formation cycle by cycle.

The subject of another data set is HBV cccDNA. Kind of data set: HBV-infected HepG2-NTCP cells incubated with exosomes packaged with gRNA/Cas9 RNPs, HBV cccDNA. The data set is classed as cell-based, Hepatitis B virus (HBV). Conditions: delivery by engineered exosomes, 3 days (1×10^8 particles packaged with 40 μM gRNA/Cas9 RNPs). Here is the method: HepG2-NTCP cells were infected for 6 days with the supernatants of HepDE19 cells. Next, HepG2-NTCP cells were transfected for 3 days with gRNA5, gRNA9, gRNA5+gRNA9, or gRNAc RNPs (FIG. 4A) or incubated with exosomes carrying gRNA5, gRNA9, gRNA5+gRNA9, or gRNAc RNPs (1×10^8 particles packaged with 40 μM gRNA/Cas9 RNPs) (FIG. 4B), followed by measuring HBV cccDNA.
To test whether the synthetic gRNA/Cas9 can reduce newly formed HBV cccDNA in HepG2-NTCP cells, the cells with HBV particle-containing supernatants from HepDE19 cells (supernatants harvested 6 days after culture in Tet-free media) were infected. The HepG2-NTCP cells were infected with HBV particles for 6 days and then transfected with gRNA5, gRNA9, gRNA5 plus gRNA9 (in combination), or gRNAc RNPs for 3 days, followed by measuring HBV cccDNA. In another experiment, the infected HepG2-NTCP cells were incubated for 3 days with exosomes packaged with gRNA5, gRNA9, gRNA5 plus gRNA9 (in combination), or gRNAc RNPs, followed by measuring HBV cccDNA.

Another data set concerns HepDE19 cells. Kind of data set: Cytotoxicity, cell viability by MTT assay. In kind it is cell-based, human. Particulars: for cell viability in the presence of TNFα: Tet-free medium, TNFα (10 ng/ml); for cell viability (MTT): with or without Tet-free medium, 24 h, vs non-transfected (NT) control. Here is the method: The MTT assay was used to determine metabolic activity and cell viability as an indicator of cellular cytotoxicity. Twenty-four hours after gRNA/Cas9 transfection, the cells were cultured in a Tet-free medium for an additional 24 h. For measuring cell proliferation, the cells were cultured in the Tet-free medium for an additional 3 days in a 96-well plate. The culture medium (100 μl) was changed and MTT reagent (0.5 mg/ml) was added at 37° C. for 4 h, followed by measuring the absorbance at 550-690 nm using a spectrophotometer (BioTek SYNERGY H1).
NAD (P) H-dependent cellular oxidoreductase enzymes reduce the tetrazolium MTT (3-(4,5-Dimethylthiazol 2-yl)-2,5-diphenyltetrazolium bromide) salt into insoluble formazan, which indicates the overall survival and metabolic activity of a living cell. To determine whether gRNA5/Cas9 or gRNA9/Cas9 exert any cytotoxic effects on HepDE19 cells, cell viability after transfection with gRNA5 or gRNA9 in the presence or absence of Tet-free medium (for HBV induction) for 24 h was measured using the MTT assay. […] Since HBV itself is not a direct cytopathic pathogen but can induce cell injury via immune-mediated mechanisms, the viability of transfected and non-transfected HepDE19 cells cultured in a Tet-free medium in the presence of TNFα, which can induce apoptotic cell death, was observed. […] Moreover, flow cytometry analysis was performed to detect the cell surface apoptotic marker annexin V and the loss of the plasma membrane integrity (measured by up taking 7-ADD). Cell apoptosis was then evaluated by measuring the Av and 7ADD levels in gRNA-transfected HepDE19 cells with or without Tet-free medium. No significant differences in cell apoptosis among the different treatments were observed (FIG. 16C). Finally, the proliferative ability of HepDE19 cells with or without gRNA transfection for 3 days was assessed, using the MTT assay. No significant differences in cell proliferation were found (FIG. 16D).
(Formazan colour is commonly taken as a measure of viable cells.)

As for GGTCTCCATGCGACGTGCAGNGG [gRNA9], in the data set on HBV in HepG2-NTCP cells, the “HBV DNA in HepG2-NTCP cells” value is “significantly lower” and the “HBV cccDNA in HepG2-NTCP cells” value was “remarkably lower”. Also, in the data set on HBV in HepG2-NTCP cells (listed as gRNA9/Cas9), the “HBV DNA in HepG2-NTCP cells” value is “significantly fewer copies” and the “HBV cccDNA in HepG2-NTCP cells” value is “significantly fewer copies”. For the same sequence, the “HBV cccDNA levels” value in the data set on HBV cccDNA is listed as “significantly reduced”. Moreover, in the data set on HepDE19 cells, the “cytotoxicity to hepatocytes (overall conclusion)” value is reported as “not cytotoxic”, the “cell viability in the presence of TNFα” value is reported as “No cytotoxic effects” and the “cell viability (MTT)” value was “no significant differences in the viability”. Also, the “cell viability (MTT)” value in the data set with HepDE19 cells (listed as gRNA9/Cas9) is on record as “no differences in the viability”.
Take “GTTATCGCTGGATGTGTCTGNGG (guide GUUAUCGCUGGAUGUGUCUGNGG; complexed with Cas9 protein, chemistry not fully specified) [gRNA5, tested as synthetic gRNA/Cas9 RNP]”: in the data set with HBV in HepG2-NTCP cells, the “HBV DNA in HepG2-NTCP cells” value is listed as “significantly lower” and the “HBV cccDNA in HepG2-NTCP cells” value is listed as “remarkably lower”. For the same sequence, in the data set on HBV in HepG2-NTCP cells (listed as gRNA5/Cas9), the “HBV DNA in HepG2-NTCP cells” value is “significantly fewer copies” and the “HBV cccDNA in HepG2-NTCP cells” value is on record as “significantly fewer copies”. The “HBV cccDNA levels” value with HBV cccDNA is given as “significantly reduced”. In the data set with HepDE19 cells, the “cytotoxicity to hepatocytes (overall conclusion)” value was “not cytotoxic”, the “cell viability in the presence of TNFα” value was “No cytotoxic effects” and the “cell viability (MTT)” value was “no significant differences in the viability”. The “cell viability (MTT)” value in the data set with HepDE19 cells (listed as gRNA5/Cas9) is listed as “no differences in the viability”.
